# Earlier results in US20260335282A1, “NOVEL 3-ARYLIDENE-2-INDOLINONE DERIVATIVES FOR THERAPEUTIC USE” (ISTANBUL UNIVERSITESI REKTORLUGU, priority 2022, published 2026).
# Key:
# VEGFR-2 = conditions: Wang et al. 2021; cited from earlier work
# angiogenesis = conditions: transgenic zebrafish, Wang et al. 2021; cited from earlier work
# HT-29 and MKN-45 cells = conditions: Wang et al. 2021; cited from earlier work
# HUVEC cell line = conditions: Wang et al. 2021; cited from earlier work
# [1] = test system: BL6-B16 melanoma and E0771 breast cancer cells; conditions: Morigi et al. 2019; cited from earlier work
# primary tumor = conditions: combination with docetaxel, Patyna et al. 2006; cited from earlier work
# FGFR1 = conditions: Liang et al. 2012; cited from earlier work
structure (smiles),measurement,setting,value
Cc1ccc(-n2cc(-c3ccc(/C=C4\C(=O)Nc5ccccc54)cc3)nn2)cc1 [III],inhibitory activity on VEGFR-2 vs sunitinib,VEGFR-2,greater inhibitory activity on VEGFR-2
same,inhibitory effect on angiogenesis,angiogenesis,confirmed in vivo
same,cytotoxicity vs sunitinib,HT-29 and MKN-45 cells,better cytotoxicity on HT-29 and MKN-45 cells
same,toxicity to HUVEC vs sunitinib,HUVEC cell line,less toxic to HUVEC cell line than sunitinib
O=C1Nc2ccccc2/C1=C/c1nc2sccn2c1-c1ccncc1 [I],tumor volume,[1],reduction in tumor volume
Cc1[nH]c(/C=C2\C(=O)Nc3ccc(F)cc32)c(C)c1C(=O)NCC(O)CN1CCOCC1 (stereo not shown) [SU14813],inhibition of primary tumor growth and survival,primary tumor,significantly improve both inhibition of primary tumor growth and survival of tumor-bearing mice
"Cc1c[nH]c(/C=C2\C(=O)Nc3ccccc32)c1CCC(=O)O [SU5402, 3-[4-methyl-2-[(Z)-(2-oxo-1H-indol-3-ylidene)methyl]-1H-pyrrol-3-yl]propanoic acid]",inhibitory activity against FGFR1 vs SU4984,FGFR1,better inhibitory activity against FGFR1 than SU4984
